# In patent publication US20240109917A1 (ACTELION PHARMACEUTICALS LTD, priority 2020, published 2024):
# Assays:
# [1] = biological target: His6-TEV-PDGFRβ (557-1016) (Homo sapiens (Human), UniProt P09619); assay: PDGFRβ HTRF Assay; type: biochemical; conditions: read-out: PDGFR HTRF IC50
# Method: Instrumentation: a. Compound liquid handling: LabCyte Echo; b. Reagent liquid handling: Thermo Scientific Multidrop Combi; c. BMG PHERAStar multilabel plate reader.
# Protein Reagent: His6-TEV-PDGFRβ Protein Prep prepared at Accelagen.
# (§1) II. Methods and Procedures
# Assay buffer stock solution, contains 50 mM Hepes, 10 mM MgCl2, 1 mM EGTA, and 0.01% Brij-35, 0.01% ovalbumin, 2 mM DTT at pH 7.5, in molecular biology grade water. Store at room temperature.
# DTT, 2 M in molecular biology grade water, store at −20° C. in aliquots.
# Ovalbumin, 10% or 100 mg/mL, prepare fresh on experimental day.
# PDGFRβ, 116 μM (PDGFRb_08 Prep 02), produced at Accelagen. Store at −80° C. in aliquots.
# TK-biotin peptide, […] in molecular biology grade water, store at −20° C. in aliquots.
# ATP, 100 mM in molecular biology grade water, store at −20° C. in aliquots.
# HTRF KinEASE-TK kit: Allow the contents of the Cisbio kit to warm up to room temperature before use. This kit contains HTRF detection buffer, TK-Antibody labeled with Eu^3+-cryptate, TK-substrate biotin and Streptavidin-XL665.
# TK Substrate-Biotin, reconstitute 500 μg lyopholized with 574 μL molecular biology grade water to prepare a 500 μM stock; After use, aliquot the rest and store at −20° C.
# TK Antibody-Cryptate, reconstitute lyophilized with 1 mL of molecular biology grade water (100× solution) then add 99 mL detection buffer to prepare a ready to use TK-antibody-cryptate solution; the concentration of the TK-antibody-cryptate reagent is not known. After use, aliquot the rest and store at −20° C.
# Streptavidin-XL665, reconstitute 3 mg lyophilized with 3 mL molecular biology grade water to prepare a 1 mg/mL or 16.67 μM stock; MW=60 kDa; After use, aliquot the rest and store at −20° C.
# Freshly Prepared Solutions:
# Assay buffer. Dilute 5× Kinase buffer 5-fold with molecular biology grade water and add DTT to 2 mM and ovalbumin to 0.1 mg/mL (or 0.01%).
# 2× protein solution. Make a working solution of […] PDGFRβ in assay buffer. Keep on ice until use to maintain enzyme stability.
# 2× substrate solution. Make a working solution of 1.6 mM ATP and 1 μM TK-substrate biotin peptide in assay buffer.
# 3× quench/detection solution. Make a working solution of 0.1875 μM SA-XL665 and the TK-antibody cryptate diluted by 12 of total quench/detection volume in assay buffer.
# Keep final streptavidin/biotin ratio at 1 to 8.
# Example of 3× quench/detection solution preparation: 8 mL total volume.
# TK antibody-cryptate in detection buffer—4000 μL
# The kinase reaction is stopped by the addition of the detection reagents which contain EDTA (detection step).
# Assay in white ProxiPlate 384-well
# Step 1. Dispensing inhibitors/DMSO and low control: Using the ECHO 555 acoustic dispenser, spot desired compound serial dilutions in DMSO, NEAT DMSO to represent the uninhibited enzyme control, and 10 μM final [imatinib] to the represent the 100% inhibited enzyme control
# Step 2. PDGFRβ E+I pre-incubation: Add 2 μL 2× protein solution to columns 1-24 using the Multidrop Combi. Centrifuge at 1000 rpm for 1 min. Incubate 30 min at RT
# Step 2. Enzymatic reaction: Add 2 μL substrate solution to columns 1-24 to initiate the reaction using the Multidrop Combi; cover/seal the assay plate to reduce evaporation. Centrifuge at 1000 rpm for 1 min. Incubate at room temperature for 3 hours.
# Step 3. Quench/Detection: Add 2 μl 3× quench/detection solution to columns 1-24 using the Multidrop Combi; cover/seal the plate. Centrifuge 1 min 1000 rpm. Incubate at RT for 60 min. Read the plate in PHERAstar (or similar instrument) on HTRF setting at excitation 337 nm—dual emission—665/620 nm ratio.
# (§2) III. Calculations and Formulas
# HTRF ratio values calculated by the instrument (Ratio is acceptor counts/donor counts*10,000) is exported from the plate reader and used in data analysis. […] Assay statistics can include Robust Z′ and Signal to Background.
# % Inhibition Calculation: Percent inhibition will be calculated for sample wells based on the equation: […]
# [2] = biological target: Tb-labeled inactive PDGFRβ (Homo sapiens (Human), UniProt P09619); assay: PDGFRβ LanthaScreen Assay; type: binding; conditions: read-out: PDGFR Lantha IC50
# VEGFR2, unphosphorylated = VEGFR2, unphosphorylated (Homo sapiens (Human), UniProt P35968); assay: VEGFR ADP GLO Assay; type: biochemical
# Method: as §1
# Assay buffer stock contains 50 mM HEPES pH7.5, 10 mM MgCl2, 0.01% Brij-35, and 1 mM EGTA.
# Unphosphorylated VEGFR2. […] Store at −80° C. in aliquots.
# Sonicate 10 mg/ml Srctide solution for 10 minutes and then vacuum filter.
# Freshly Prepared Solutions
# 2× kinase solution. Make a working solution of 10 nM unphosphorylated VEGFR2 in Assay buffer. Vacuum filter 2× kinase solution prior to running assay. Keep on ice until use.
# 2× substrate/ATP solution. Make a working solution of 2 mg/mL srctide and 2.4 mM ATP in Assay buffer. Keep on ice until use.
# Step 1. Dispensing inhibitors/controls: Using Echo, dispense 10 nL/well compound serial dilutions in DMSO to columns 1-22 (in 384-well plates) or columns 1-44 (in 1536-well plates). Dilution series=11 pt, 3-fold dilutions. The top compound concentration in the source plate is 4 mM. The top compound concentration in the assay plate is 10 uM. Using Echo, dispense 10 nl/well DMSO to column 23 (in 384-well plates) or columns 45-47 (in 1536-well plates). […] These wells will serve as positive control wells.
# Step 2. Pre-incubation of inhibitors with kinase: Add 2 μL/well 2× kinase solution. Centrifuge at 1000 rpm for 1 min. Incubate at room temperature for 30 min.
# Step 3. Kinase cascade reaction: Add 2 μL/well 2× substrate/ATP solution to initiate kinase reactions. Centrifuge at 1000 rpm for 1 min. Incubate at room temperature for 180 min.
# Final concentrations of components in the assay:
# Step 4. Quench: Add 2 uL/well ADP Glo Reagent+0.05% CHAPS. Centrifuge at 1000 rpm for 1 min; Incubate at room temperature for one hour.
# Step 5. Detection: Add 2 uL/well Kinase Detection Reagent+0.05% CHAPS. Centrifuge at 1000 rpm for 1 min; Incubate at room temperature for 1 hour; Read Luminescence on a plate reader.
# as §2
# IC50 values are determined from a 4-parameter fit, using the following equation: Y=Bottom+(Top−Bottom)/(1+10^(Log IC50-X)*Hill slope) where X=log10 of the compound concentration; top can be defined by PC; bottom defined by NC.
# His6-TEV-PDGFRβ (557-1016), sequence (P09619 557-1016): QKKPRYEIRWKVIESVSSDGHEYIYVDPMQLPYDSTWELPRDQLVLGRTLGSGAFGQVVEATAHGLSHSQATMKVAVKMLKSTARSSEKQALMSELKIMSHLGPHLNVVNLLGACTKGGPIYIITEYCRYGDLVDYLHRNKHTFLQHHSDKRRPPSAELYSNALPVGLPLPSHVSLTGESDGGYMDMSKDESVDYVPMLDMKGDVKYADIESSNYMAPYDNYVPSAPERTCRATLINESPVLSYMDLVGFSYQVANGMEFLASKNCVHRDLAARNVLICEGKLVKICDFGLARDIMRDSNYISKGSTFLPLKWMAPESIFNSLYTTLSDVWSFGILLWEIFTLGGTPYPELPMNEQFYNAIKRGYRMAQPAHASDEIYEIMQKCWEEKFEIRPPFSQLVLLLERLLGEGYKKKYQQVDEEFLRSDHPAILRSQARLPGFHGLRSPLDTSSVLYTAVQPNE
# Tb-labeled inactive PDGFRβ, sequence (P09619 33-1106): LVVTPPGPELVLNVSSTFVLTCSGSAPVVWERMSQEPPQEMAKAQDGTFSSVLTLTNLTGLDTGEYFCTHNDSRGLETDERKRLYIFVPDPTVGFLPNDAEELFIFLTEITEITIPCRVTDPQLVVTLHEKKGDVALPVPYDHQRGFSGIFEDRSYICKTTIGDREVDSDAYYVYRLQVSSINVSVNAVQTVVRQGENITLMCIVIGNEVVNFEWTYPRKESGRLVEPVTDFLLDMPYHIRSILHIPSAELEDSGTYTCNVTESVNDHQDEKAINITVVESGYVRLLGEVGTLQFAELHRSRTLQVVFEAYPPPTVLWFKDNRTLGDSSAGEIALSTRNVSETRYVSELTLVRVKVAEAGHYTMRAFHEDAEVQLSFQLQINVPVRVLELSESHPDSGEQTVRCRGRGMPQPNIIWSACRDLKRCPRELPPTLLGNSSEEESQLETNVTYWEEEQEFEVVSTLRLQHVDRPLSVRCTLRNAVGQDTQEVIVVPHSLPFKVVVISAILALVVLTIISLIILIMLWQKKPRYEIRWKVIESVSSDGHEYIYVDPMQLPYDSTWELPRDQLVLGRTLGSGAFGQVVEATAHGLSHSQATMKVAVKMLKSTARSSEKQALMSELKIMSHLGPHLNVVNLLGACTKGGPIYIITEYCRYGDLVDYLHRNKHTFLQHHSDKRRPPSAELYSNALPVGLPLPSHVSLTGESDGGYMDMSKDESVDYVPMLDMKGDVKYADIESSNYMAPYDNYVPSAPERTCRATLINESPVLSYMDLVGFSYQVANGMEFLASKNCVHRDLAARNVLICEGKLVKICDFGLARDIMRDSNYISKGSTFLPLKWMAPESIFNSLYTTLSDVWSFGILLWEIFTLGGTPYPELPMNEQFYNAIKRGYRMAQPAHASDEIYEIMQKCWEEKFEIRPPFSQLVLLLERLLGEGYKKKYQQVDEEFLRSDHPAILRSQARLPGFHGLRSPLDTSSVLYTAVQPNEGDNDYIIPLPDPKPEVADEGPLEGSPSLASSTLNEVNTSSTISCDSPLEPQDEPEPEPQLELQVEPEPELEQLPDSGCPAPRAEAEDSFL
# VEGFR2, unphosphorylated, sequence (P35968 20-1356): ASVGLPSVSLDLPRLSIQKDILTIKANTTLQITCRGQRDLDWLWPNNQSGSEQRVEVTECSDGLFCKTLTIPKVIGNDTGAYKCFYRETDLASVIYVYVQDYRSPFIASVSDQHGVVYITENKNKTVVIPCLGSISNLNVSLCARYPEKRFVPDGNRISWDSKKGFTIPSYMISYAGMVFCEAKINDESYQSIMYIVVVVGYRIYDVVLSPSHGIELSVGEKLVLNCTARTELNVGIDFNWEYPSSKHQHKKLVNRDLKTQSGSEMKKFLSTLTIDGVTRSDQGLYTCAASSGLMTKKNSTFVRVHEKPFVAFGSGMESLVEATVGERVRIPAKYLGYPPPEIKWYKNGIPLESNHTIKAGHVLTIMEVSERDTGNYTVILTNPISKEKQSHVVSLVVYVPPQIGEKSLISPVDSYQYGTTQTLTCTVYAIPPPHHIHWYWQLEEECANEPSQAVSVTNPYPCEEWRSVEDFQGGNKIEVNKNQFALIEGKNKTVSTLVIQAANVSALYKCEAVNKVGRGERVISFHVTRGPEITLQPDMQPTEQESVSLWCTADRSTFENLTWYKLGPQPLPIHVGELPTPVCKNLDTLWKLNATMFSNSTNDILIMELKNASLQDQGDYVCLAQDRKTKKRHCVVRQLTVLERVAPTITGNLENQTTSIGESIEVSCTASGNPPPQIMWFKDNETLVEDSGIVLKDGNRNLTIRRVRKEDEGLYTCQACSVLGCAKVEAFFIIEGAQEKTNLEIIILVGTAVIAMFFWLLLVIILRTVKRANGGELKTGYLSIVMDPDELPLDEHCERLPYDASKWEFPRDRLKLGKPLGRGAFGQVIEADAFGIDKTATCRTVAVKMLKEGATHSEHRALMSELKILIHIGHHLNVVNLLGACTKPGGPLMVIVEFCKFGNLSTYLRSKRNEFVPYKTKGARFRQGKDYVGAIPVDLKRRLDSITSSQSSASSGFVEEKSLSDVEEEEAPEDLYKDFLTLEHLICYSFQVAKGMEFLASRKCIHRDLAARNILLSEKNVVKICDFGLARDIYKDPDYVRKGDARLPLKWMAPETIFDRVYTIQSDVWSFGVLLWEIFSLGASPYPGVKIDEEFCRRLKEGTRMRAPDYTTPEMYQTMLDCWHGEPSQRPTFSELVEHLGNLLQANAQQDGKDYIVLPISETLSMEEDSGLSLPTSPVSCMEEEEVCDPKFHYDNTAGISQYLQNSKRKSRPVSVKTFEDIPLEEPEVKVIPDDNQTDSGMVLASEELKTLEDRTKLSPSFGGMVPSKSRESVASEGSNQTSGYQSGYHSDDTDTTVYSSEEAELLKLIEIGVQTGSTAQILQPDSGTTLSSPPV
smiles,measurement,setting,value
"Cc1ncc(C(=O)NCCN2CCCC2(C)C)cc1NC(=O)c1cnn2cc(-c3ccc(N)nc3)sc12 [Example 130, 2-(6-aminopyridin-3-yl)-N-(5-((2-(2,2-dimethylpyrrolidin-1-yl)ethyl)carbamoyl)-2-methylpyridin-3-yl)pyrazolo[5,1-b]thiazole-7-carboxamide]",IC50,[1],0.5 nM
same,IC50,[2],4.3 nM
same,IC50,"VEGFR2, unphosphorylated",> 7500 nM
"Cc1ncc(C(=O)NCCN2CCCC2(C)C)cc1NC(=O)c1cnn2cc(-c3cnn(C)n3)sc12 [Example 131, N-(5-((2-(2,2-dimethylpyrrolidin-1-yl)ethyl)carbamoyl)-2-methylpyridin-3-yl)-2-(2-methyl-2H-1,2,3-triazol-4-yl)pyrazolo[5,1-b]thiazole-7-carboxamide]",IC50,[1],1.7 nM
same,IC50,[2],9.1 nM
same,IC50,"VEGFR2, unphosphorylated",> 7500 nM
"Cc1ncc(C(=O)NCCN2CCCC2(C)C)cc1NC(=O)c1cnn2cc(-c3ccc(C(=O)O)cc3)sc12 [Example 133, 4-(7-((5-((2-(2,2-dimethylpyrrolidin-1-yl)ethyl)carbamoyl)-2-methylpyridin-3-yl)carbamoyl)pyrazolo[5,1-b]thiazol-2-yl)benzoic acid]",IC50,[1],1.5 nM
same,IC50,[2],6.3 nM
same,IC50,"VEGFR2, unphosphorylated",> 7500 nM
"Cc1ncc(C(=O)NCCN2CCCC2(C)C)cc1NC(=O)c1cnn2cc(-c3cccc(C(=O)O)c3)sc12 [Example 134, 3-(7-((5-((2-(2,2-dimethylpyrrolidin-1-yl)ethyl)carbamoyl)-2-methylpyridin-3-yl)carbamoyl)pyrazolo[5,1-b]thiazol-2-yl)benzoic acid]",IC50,[1],2.9 nM
same,IC50,[2],13.9 nM
same,IC50,"VEGFR2, unphosphorylated",> 7500 nM
"Cc1ncc(C(=O)NCCN2CCCC2(C)C)cc1NC(=O)c1cnn2cc(-c3cccnc3)sc12 [Example 135, N-(5-((2-(2,2-dimethylpyrrolidin-1-yl)ethyl)carbamoyl)-2-methylpyridin-3-yl)-2-(pyridin-3-yl)pyrazolo[5,1-b]thiazole-7-carboxamide]",IC50,[1],1.3 nM
same,IC50,[2],10.6 nM
same,IC50,"VEGFR2, unphosphorylated",> 7500 nM
"Cc1ccc(-c2cn3ncc(C(=O)Nc4cc(C(=O)NCCN5CCCC5(C)C)cnc4C)c3s2)cn1 [Example 136, N-(5-((2-(2,2-dimethylpyrrolidin-1-yl)ethyl)carbamoyl)-2-methylpyridin-3-yl)-2-(6-methylpyridin-3-yl)pyrazolo[5,1-b]thiazole-7-carboxamide]",IC50,[1],1.4 nM
same,IC50,[2],1 nM
same,IC50,"VEGFR2, unphosphorylated",> 7500 nM
"Cc1ncc(C(=O)NCCN2CCCC2(C)C)cc1NC(=O)c1cnn2cc(-c3ccc(=O)[nH]c3)sc12 [Example 137, N-(5-((2-(2,2-dimethylpyrrolidin-1-yl)ethyl)carbamoyl)-2-methylpyridin-3-yl)-2-(6-oxo-1,6-dihydropyridin-3-yl)pyrazolo[5,1-b]thiazole-7-carboxamide]",IC50,[1],2.2 nM
same,IC50,[2],24.4 nM
same,IC50,"VEGFR2, unphosphorylated",> 2500 nM
"Cc1ncc(C(=O)NCCN2CCCC2(C)C)cc1NC(=O)c1cnn2cc(-c3ccc(=O)n(C)c3)sc12 [Example 138, N-(5-((2-(2,2-dimethylpyrrolidin-1-yl)ethyl)carbamoyl)-2-methylpyridin-3-yl)-2-(1-methyl-6-oxo-1,6-dihydropyridin-3-yl)pyrazolo[5,1-b]thiazole-7-carboxamide]",IC50,[1],3.7 nM
same,IC50,[2],39.6 nM
same,IC50,"VEGFR2, unphosphorylated",> 7500 nM
Cc1ncc(C(=O)NCCN2[C@H](C)CCC[C@@H]2C)cc1NC(=O)c1cnn2cc(-c3cnn(C)c3)sc12 [Example 164],IC50,[1],1.5 nM
same,IC50,[2],6.2 nM
same,IC50,"VEGFR2, unphosphorylated",> 7500 nM
"Cc1ncc(C(=O)NCCN2CC(C)(C)C2)cc1NC(=O)c1cnn2cc(-c3cnn4c3COCC4)sc12 [Example 489, 2-(6,7-dihydro-4H-pyrazolo[5,1-c][1,4]oxazin-3-yl)-N-(5-((2-(3,3-dimethylazetidin-1-yl)ethyl)carbamoyl)-2-methylpyridin-3-yl)pyrazolo[5,1-b]thiazole-7-carboxamide]",IC50,[1],0.5 nM
same,IC50,[2],5.5 nM
same,IC50,"VEGFR2, unphosphorylated",> 7500 nM
"Cc1ncc(C(=O)NCCN2CCCC2(C)C)cc1NC(=O)c1cnn2cc(-c3ccnc(N(C)C)c3)sc12 [Example 490, 2-(2-(dimethylamino)pyridin-4-yl)-N-(5-((2-(2,2-dimethylpyrrolidin-1-yl)ethyl)carbamoyl)-2-methylpyridin-3-yl)pyrazolo[5,1-b]thiazole-7-carboxamide]",IC50,[1],0.3 nM
same,IC50,[2],2.3 nM
same,IC50,"VEGFR2, unphosphorylated",> 7500 nM
"Cc1ncc(C(=O)NCCNC2CCC2)cc1NC(=O)c1cnn2cc(-c3cnn4c3CCC4)sc12 [Example 491, N-(5-((2-(cyclobutylamino)ethyl)carbamoyl)-2-methylpyridin-3-yl)-2-(5,6-dihydro-4H-pyrrolo[1,2-b]pyrazol-3-yl)pyrazolo[5,1-b]thiazole-7-carboxamide]",IC50,[1],0.3 nM
same,IC50,[2],4.9 nM
same,IC50,"VEGFR2, unphosphorylated",> 7500 nM
"Cc1ncc(NC(=O)CCC2CCCN2C)cc1NC(=O)c1cnn2cc(-c3cnn(C)c3)sc12 (stereo not drawn) [Example 492, 2-(1-methyl-1H-pyrazol-4-yl)-N-(2-methyl-5-(3-(1-methylpyrrolidin-2-yl)propanamido)pyridin-3-yl)pyrazolo[5,1-b]thiazole-7-carboxamide]",IC50,[1],0.7 nM
same,IC50,[2],15 nM
same,IC50,"VEGFR2, unphosphorylated",> 7500 nM
